Numbers after ± are expanded uncertainties.
Test: xn = mol fraction of the nth substance listed
Details: Liquid, Vibrating tube method

A mass density (333.01 K, 7000 kPa, x2 = 0.9308) of 636.74 ± 0.33 kg/m3, a mass density (333.01 K, 8000 kPa, x2 = 0.9308) of 638.01 ± 0.34 kg/m3 and a mass density (333.01 K, 9000 kPa, x2 = 0.9308) of 639.26 ± 0.35 kg/m3 were found for `CCCCCCCC` [octane] + CCCCCC in this work. The mass density (333.01 K, 10000 kPa, x2 = 0.9308) was 640.48 ± 0.36 kg/m3, the mass density (333.01 K, 11000 kPa, x2 = 0.9308) was 641.7 ± 0.37 kg/m3 and the mass density (333.01 K, 12000 kPa, x2 = 0.9308) was 642.89 ± 0.38 kg/m3. It also gave a mass density (333.01 K, 13000 kPa, x2 = 0.9308) of 644.06 ± 0.39 kg/m3, a mass density (333.01 K, 14000 kPa, x2 = 0.9308) of 645.22 ± 0.4 kg/m3 and a mass density (333.01 K, 15000 kPa, x2 = 0.9308) of 646.35 ± 0.41 kg/m3. For the same compound, the mass density (333.01 K, 16000 kPa, x2 = 0.9308) was 647.46 ± 0.42 kg/m3, the mass density (333.01 K, 17000 kPa, x2 = 0.9308) was 648.54 ± 0.43 kg/m3 and the mass density (333.01 K, 18000 kPa, x2 = 0.9308) was 649.61 ± 0.44 kg/m3. For the same compound, the mass density (333.01 K, 19000 kPa, x2 = 0.9308) was 650.63 ± 0.45 kg/m3, the mass density (333.01 K, 20000 kPa, x2 = 0.9308) was 651.64 ± 0.46 kg/m3 and the mass density (333.01 K, 21000 kPa, x2 = 0.9308) was 652.62 ± 0.47 kg/m3. For the same compound, the mass density (333.01 K, 22000 kPa, x2 = 0.9308) was 653.55 ± 0.48 kg/m3, the mass density (333.01 K, 23000 kPa, x2 = 0.9308) was 654.5 ± 0.49 kg/m3 and the mass density (333.01 K, 24000 kPa, x2 = 0.9308) was 655.39 ± 0.51 kg/m3. It also gave a mass density (333.01 K, 25000 kPa, x2 = 0.9308) of 656.28 ± 0.52 kg/m3, a mass density (333.02 K, 1000 kPa, x2 = 0.1654) of 665.79 ± 0.26 kg/m3 and a mass density (333.02 K, 1000 kPa, x2 = 0.7995) of 637.16 ± 0.28 kg/m3. The mass density (333.02 K, 2000 kPa, x2 = 0.1654) was 666.85 ± 0.27 kg/m3, the mass density (333.02 K, 2000 kPa, x2 = 0.7995) was 638.39 ± 0.28 kg/m3 and the mass density (333.02 K, 3000 kPa, x2 = 0.1654) was 667.91 ± 0.28 kg/m3. For the same compound, the mass density (333.02 K, 3000 kPa, x2 = 0.7995) was 639.63 ± 0.29 kg/m3, the mass density (333.02 K, 4000 kPa, x2 = 0.1654) was 668.97 ± 0.29 kg/m3 and the mass density (333.02 K, 4000 kPa, x2 = 0.7995) was 640.91 ± 0.3 kg/m3. It also gave a mass density (333.02 K, 5000 kPa, x2 = 0.1654) of 670.04 ± 0.29 kg/m3, a mass density (333.02 K, 5000 kPa, x2 = 0.7995) of 642.14 ± 0.31 kg/m3 and a mass density (333.02 K, 6000 kPa, x2 = 0.1654) of 671.11 ± 0.3 kg/m3. For the same compound, the mass density (333.02 K, 6000 kPa, x2 = 0.7995) was 643.37 ± 0.32 kg/m3, the mass density (333.02 K, 7000 kPa, x2 = 0.1654) was 672.17 ± 0.31 kg/m3 and the mass density (333.02 K, 7000 kPa, x2 = 0.7995) was 644.6 ± 0.33 kg/m3. The mass density (333.02 K, 8000 kPa, x2 = 0.1654) was 673.21 ± 0.32 kg/m3, the mass density (333.02 K, 8000 kPa, x2 = 0.7995) was 645.81 ± 0.34 kg/m3 and the mass density (333.02 K, 9000 kPa, x2 = 0.1654) was 674.28 ± 0.33 kg/m3. The mass density (333.02 K, 9000 kPa, x2 = 0.7995) was 647.01 ± 0.35 kg/m3, the mass density (333.02 K, 10000 kPa, x2 = 0.1654) was 675.32 ± 0.34 kg/m3 and the mass density (333.02 K, 10000 kPa, x2 = 0.7995) was 648.19 ± 0.36 kg/m3. The mass density (333.02 K, 11000 kPa, x2 = 0.1654) was 676.36 ± 0.34 kg/m3, the mass density (333.02 K, 11000 kPa, x2 = 0.7995) was 649.36 ± 0.37 kg/m3 and the mass density (333.02 K, 12000 kPa, x2 = 0.1654) was 677.38 ± 0.35 kg/m3. The mass density (333.02 K, 12000 kPa, x2 = 0.7995) was 650.5 ± 0.38 kg/m3, the mass density (333.02 K, 13000 kPa, x2 = 0.1654) was 678.38 ± 0.36 kg/m3 and the mass density (333.02 K, 13000 kPa, x2 = 0.7995) was 651.63 ± 0.39 kg/m3. The mass density (333.02 K, 14000 kPa, x2 = 0.1654) was 679.38 ± 0.37 kg/m3, the mass density (333.02 K, 14000 kPa, x2 = 0.7995) was 652.74 ± 0.4 kg/m3 and the mass density (333.02 K, 15000 kPa, x2 = 0.1654) was 680.34 ± 0.38 kg/m3. For the same compound, the mass density (333.02 K, 15000 kPa, x2 = 0.7995) was 653.84 ± 0.4 kg/m3, the mass density (333.02 K, 16000 kPa, x2 = 0.1654) was 681.29 ± 0.39 kg/m3 and the mass density (333.02 K, 16000 kPa, x2 = 0.7995) was 654.91 ± 0.41 kg/m3. For the same compound, the mass density (333.02 K, 17000 kPa, x2 = 0.1654) was 682.26 ± 0.4 kg/m3, the mass density (333.02 K, 17000 kPa, x2 = 0.7995) was 655.95 ± 0.42 kg/m3 and the mass density (333.02 K, 18000 kPa, x2 = 0.1654) was 683.15 ± 0.41 kg/m3. It also gave a mass density (333.02 K, 18000 kPa, x2 = 0.7995) of 656.97 ± 0.43 kg/m3, a mass density (333.02 K, 19000 kPa, x2 = 0.1654) of 684.04 ± 0.41 kg/m3 and a mass density (333.02 K, 19000 kPa, x2 = 0.7995) of 657.98 ± 0.44 kg/m3. It also gave a mass density (333.02 K, 20000 kPa, x2 = 0.1654) of 684.93 ± 0.42 kg/m3, a mass density (333.02 K, 20000 kPa, x2 = 0.7995) of 658.95 ± 0.45 kg/m3 and a mass density (333.02 K, 21000 kPa, x2 = 0.1654) of 685.79 ± 0.43 kg/m3. For the same compound, the mass density (333.02 K, 21000 kPa, x2 = 0.7995) was 659.91 ± 0.46 kg/m3, the mass density (333.02 K, 22000 kPa, x2 = 0.1654) was 686.62 ± 0.44 kg/m3 and the mass density (333.02 K, 22000 kPa, x2 = 0.7995) was 660.83 ± 0.47 kg/m3. For the same compound, the mass density (333.02 K, 23000 kPa, x2 = 0.1654) was 687.45 ± 0.45 kg/m3, the mass density (333.02 K, 23000 kPa, x2 = 0.7995) was 661.72 ± 0.48 kg/m3 and the mass density (333.02 K, 24000 kPa, x2 = 0.1654) was 688.25 ± 0.46 kg/m3. It also gave a mass density (333.02 K, 24000 kPa, x2 = 0.7995) of 662.6 ± 0.49 kg/m3, a mass density (333.02 K, 25000 kPa, x2 = 0.1654) of 689.01 ± 0.47 kg/m3 and a mass density (333.02 K, 25000 kPa, x2 = 0.7995) of 663.44 ± 0.51 kg/m3. It also gave a mass density (333.04 K, 1000 kPa, x2 = 0.2199) of 663.81 ± 0.26 kg/m3, a mass density (333.04 K, 2000 kPa, x2 = 0.2199) of 664.87 ± 0.27 kg/m3 and a mass density (333.04 K, 3000 kPa, x2 = 0.2199) of 665.96 ± 0.28 kg/m3. The mass density (333.04 K, 4000 kPa, x2 = 0.2199) was 667.04 ± 0.29 kg/m3, the mass density (333.04 K, 5000 kPa, x2 = 0.2199) was 668.13 ± 0.29 kg/m3 and the mass density (333.04 K, 6000 kPa, x2 = 0.2199) was 669.19 ± 0.3 kg/m3. For the same compound, the mass density (333.04 K, 7000 kPa, x2 = 0.2199) was 670.26 ± 0.31 kg/m3, the mass density (333.04 K, 8000 kPa, x2 = 0.2199) was 671.36 ± 0.32 kg/m3 and the mass density (333.04 K, 9000 kPa, x2 = 0.2199) was 672.39 ± 0.33 kg/m3. It also gave a mass density (333.04 K, 10000 kPa, x2 = 0.2199) of 673.44 ± 0.34 kg/m3, a mass density (333.04 K, 11000 kPa, x2 = 0.2199) of 674.49 ± 0.35 kg/m3 and a mass density (333.04 K, 12000 kPa, x2 = 0.2199) of 675.5 ± 0.35 kg/m3. The mass density (333.04 K, 13000 kPa, x2 = 0.2199) was 676.53 ± 0.36 kg/m3, the mass density (333.04 K, 14000 kPa, x2 = 0.2199) was 677.53 ± 0.37 kg/m3 and the mass density (333.04 K, 15000 kPa, x2 = 0.2199) was 678.51 ± 0.38 kg/m3. It also gave a mass density (333.04 K, 16000 kPa, x2 = 0.2199) of 679.46 ± 0.39 kg/m3, a mass density (333.04 K, 17000 kPa, x2 = 0.2199) of 680.4 ± 0.4 kg/m3 and a mass density (333.04 K, 18000 kPa, x2 = 0.2199) of 681.32 ± 0.41 kg/m3. It also gave a mass density (333.04 K, 19000 kPa, x2 = 0.2199) of 682.23 ± 0.42 kg/m3, a mass density (333.04 K, 20000 kPa, x2 = 0.2199) of 683.09 ± 0.43 kg/m3 and a mass density (333.04 K, 21000 kPa, x2 = 0.2199) of 683.96 ± 0.43 kg/m3. It also gave a mass density (333.04 K, 22000 kPa, x2 = 0.2199) of 684.8 ± 0.44 kg/m3, a mass density (333.04 K, 23000 kPa, x2 = 0.2199) of 685.61 ± 0.45 kg/m3 and a mass density (333.04 K, 24000 kPa, x2 = 0.2199) of 686.43 ± 0.46 kg/m3. It also gave a mass density (333.04 K, 25000 kPa, x2 = 0.2199) of 687.22 ± 0.47 kg/m3.

Source: the NIST ThermoML archive (doi:10.1021/je200721d)
